Assay results taken from patent US20240000860A1, “METHODS FOR TREATING AUTISM SPECTRUM DISORDER” (priority 2020, published 2024).
Marks after values point to notes of the source that are not given here.

Columns and labels:
Format in all cases: in vivo
[1] = tested on: gene pathways in mouse brain (prefrontal cortex); assay: RNA sequencing of prefrontal cortex after supplemented metabolites: differentially expressed gene pathways; conditions: two weeks supplementation
Experimental: Transcriptomics data (RNA sequencing) was collected from the prefrontal cortex of 12-week old mice after consuming a low, medium, or high dosage of supplemented metabolites for two weeks. RNA sequencing used brain tissue to evaluate possible correlation between changes in relative changes in gene transcription with changes in behavior. The number of differentially expressed gene pathways at significance level of 0.05, 0.1, and 0.15 was determined (Table 1).

mice [2] = assay: Elevated plus maze (anxiogenic behavior)
Experimental: (§1) Mice were fed 80% of their total food as non-supplemented food (chow) for 4 days. For the next two weeks, mice were fed 80% of their total food as non-supplemented food and the remaining 20% was supplemented with selected metabolites(s). Mice were fed on food supplemented with various metabolites including 5-dodecacenoate (5D), glycodeoxycholate (GDC), ursodeoxycholate (UDC), or a control food lacking a supplement (CTL). Mouse behavior was tested using an elevated plus maze (FIG. 13), a three-chamber sociability test, and tracking wheel usage. During testing, mice were fed 80% of their total food as non-supplemented food and the remaining 20% was supplemented with the selected metabolites(s).
Anxiogenic behavior was tested by tracking time spent in closed arms of an elevated plus maze. Control mice were fed food lacking a supplement.

mice [3] = assay: Habituation over three days (distance traveled, time in center, ambulatory time)
Experimental: as §1
Habituation over was tested with the […] (FIG. 16). […] Significance was tested with an ANOVA test.
Habituation was measured by tracking the amount of time spent in the center of the chamber (FIG. 18).
Active time was also measured as total ambulatory time and center ambulatory time.

mice [4] = assay: Three-chamber sociability test
Experimental: as §1
Additionally, the effect of supplementation with the metabolites on sociability was measured with a three-chamber sociability test (FIG. 21). This chamber tested for responses to social novelty.

mice [5] = assay: Mouse wheel distance traveled
Experimental: as §1
Lastly, mice fed with food supplemented with various metabolites were given a mouse wheel and distance traveled was tracked.

CNTNAP2 mice [6] = assay: Gut microbiota taxonomic composition in colons with 5D supplementation
Experimental: Genera under the family Lachnospiraceae and Ruminococcaceae were consistently seen increased in CNTNAP2 mice and decreased with 5D supplementation.
P-values were determined using permanova and beta-dispersion tests. FIGS. 29B-29N show results of differential abundance test of ASVs aggregated at the genus level. […] P-values were determined using Wilcoxon rank sum test, values were reported as fold change of median of C57BL/6 controls.

CNTNAP2 mice [7] = assay: Lipidomic profiles and triglyceride levels in brain, plasma, liver and stool
Source text: Triglycerides were identified as influential in every tissue measured. Lipids were first aggregated into categories (e.g. triglycerides, phosphocholines), then PCA ordination was applied. […] P-values determined from permanova test between treatments are shown as annotations.
Intensities were normalized using CUDA calibration and were reported as log fold change of median of C57BL/6 wild type controls. P-values were derived from Wilcox rank sum test.

[8] = tested on: gene pathways in frontal cortex of CNTNAP2 mice; assay: RNA-sequencing and gene set enrichment analysis of frontal cortex; conditions: for normalized enrichment score: 5D vs normal chow
Experimental: In this example, to further investigate 5D's effect on neuronal function, RNA-sequencing was performed on the frontal cortex region of CNTNAP2 mice supplemented with 5D after 3 weeks.
Bar size depicts enrichment score normalized by gene set size, and color depicts fdr corrected p-value as determined by gene set enrichment analysis. […] (CNTNAP-NormC: n=5, CNTNAP-5D: n=9)

[9] = behavioral assay summary, Yes/No
[10] = frontal cortex of CNTNAP2 mice after 3 weeks

For `CCCCCCC=CCCCC(=O)O` [5D, 5-dodecenoate], the “Differentially Expressed Gene Pathways in Mouse Brain” value ([1]; significance level 0.05, 12-week old mice) was 0, the “Differentially Expressed Gene Pathways in Mouse Brain” value ([1]; significance level 0.1, 12-week old mice) was 216 and the “Differentially Expressed Gene Pathways in Mouse Brain” value ([1]; significance level 0.15, 12-week old mice) was 235. The EPM closed arms (mice [2]; [9]) was “Yes”, the EPM open arms (mice [2]; [9]) was “No” and the “active time in the closed arms of the maze” value (mice [2]; vs control mice) was “lower active time in the closed arms of the maze than control mice”. For the same compound, the “time spent in closed arms of elevated plus maze” value (mice [2]; vs control mice) was “spent less time in the closed arms of the maze”, the Habituation exploration (mice [3]; [9]) was “Yes” and the “Habituation time in center” value (mice [3]; [9]) was “Yes”. For the same compound, the “habituation: total distance traveled and exploratory activity” value (mice [3]; over three days) was “lower total distance traveled and exploratory activity over three days”, the center ambulatory time (mice [3]; over time) was “increase in center ambulatory time over time” and the “time spent in the center of the chamber” value (mice [3]; over time) was “increase in time spent in the center of the chamber over time”. The Sociability (mice [4]; [9]) was “Yes”, the “time spent with a new mouse, compared among treatments” value (mice [4]; mouse, in vivo) was “spent the most time with a new mouse” and the “time spent with novel mouse ('new') vs known mouse ('old')” value (mice [4]; response to social novelty) was “spent more time with a novel mouse”. The night-time activity (mice [5]; after administering metabolites) was “night-time activity increased”, the “Adjusted p value, comparison of average distance traveled” value (mice [5]; treatment average vs Control Average) was 0.01466* and the Romboutsia ilealis levels (CNTNAP2 mice [6]; CNTNAP2 mice) was “found at very high levels in some CNTNAP2 mice”. For the same compound, the “ten genera of bacteria increased in CNTNAP2 mice compared to C57BL/6” value (CNTNAP2 mice [6]; Wilcoxon rank sum test) was “significantly decreased”, the “taxonomic composition of gut microbiota” value (CNTNAP2 mice [6]; oral supplementation, CNTNAP2 mice vs C57BL/6 wild types) was “shifts the taxonomic composition of CNTNAP2 mice” and the “lipid profiles in brain and stool” value (CNTNAP2 mice [7]) was “tended to shift brain and stool profiles, though this shift was not statistically significant”. The “lipid profiles in plasma and liver” value (CNTNAP2 mice [7]) was “significantly shift CNTNAP2 mouse lipid profiles in plasma and liver”, the “triglyceride levels in brain, liver, plasma and stool” value (CNTNAP2 mice [7]; dietary supplementation) was “decreased the levels significantly in each of the tissues” and the normalized enrichment score ([8]; R-MMU-112314 Neurotransmitter receptors and postsynaptic signal transmission) was −2.033. The normalized enrichment score ([8]; R-MMU-112315 Transmission across Chemical Synapses) was −1.846, the normalized enrichment score ([8]; R-MMU-112316 Neuronal System) was −2.025 and the normalized enrichment score ([8]; R-MMU-114604 GPVI-mediated activation cascade) was 1.832. The normalized enrichment score ([8]; R-MMU-181431 Acetylcholine binding and downstream events) was −2.154, the normalized enrichment score ([8]; R-MMU-195721 Signaling by WNT) was −1.416 and the normalized enrichment score ([8]; R-MMU-198933 Immunoregulatory interactions between a Lymphoid and a non-Lymphoid cell) was 1.706. For the same compound, the normalized enrichment score ([8]; R-MMU-202733 Cell surface interactions at the vascular wall) was 1.736, the normalized enrichment score ([8]; R-MMU-216083 Integrin cell surface interactions) was 1.99 and the normalized enrichment score ([8]; R-MMU-397014 Muscle contraction) was −1.646. The normalized enrichment score ([8]; R-MMU-418360 Platelet calcium homeostasis) was −2.258, the normalized enrichment score ([8]; R-MMU-419037 NCAM1 interactions) was 1.823 and the normalized enrichment score ([8]; R-MMU-622323 Presynaptic nicotinic acetylcholine receptors) was −2.107. The normalized enrichment score ([8]; R-MMU-622327 Postsynaptic nicotinic acetylcholine receptors) was −2.154, the normalized enrichment score ([8]; R-MMU-629594 Highly calcium permeable postsynaptic nicotinic acetylcholine receptors) was −2.095 and the normalized enrichment score ([8]; R-MMU-983168 Antigen processing: Ubiquitination and Proteasome degradation) was −1.55. For the same compound, the normalized enrichment score ([8]; R-MMU-1296071 Potassium Channels) was −1.854, the normalized enrichment score ([8]; R-MMU-1296072 Voltage gated Potassium channels) was −1.912 and the normalized enrichment score ([8]; R-MMU-1442490 Collagen degradation) was 2.005. It also gave a normalized enrichment score ([8]; R-MMU-1474228 Degradation of the extracellular matrix) of 1.968, a normalized enrichment score ([8]; R-MMU-1474244 Extracellular matrix organization) of 1.79 and a normalized enrichment score ([8]; R-MMU-1474290 Collagen formation) of 2.185. It also gave a normalized enrichment score ([8]; R-MMU-1650814 Collagen biosynthesis and modifying enzymes) of 2.145, a normalized enrichment score ([8]; R-MMU-2022090 Assembly of collagen fibrils and other multimeric structures) of 2.261 and a normalized enrichment score ([8]; R-MMU-2022857 Keratan sulfate degradation) of 1.893. For the same compound, the normalized enrichment score ([8]; R-MMU-3928664 Ephrin signaling) was −2.03, the normalized enrichment score ([8]; R-MMU-5576891 Cardiac conduction) was −1.669 and the normalized enrichment score ([8]; R-MMU-5668599 RHO GTPases Activate NADPH Oxidases) was 1.842. It also gave a normalized enrichment score ([8]; R-MMU-5686938 Regulation of TLR by endogenous ligand) of 1.963, a normalized enrichment score ([8]; R-MMU-6794361 Neurexins and neuroligins) of −1.973 and a normalized enrichment score ([8]; R-MMU-6794362 Protein-protein interactions at synapses) of −2.181. It also gave a normalized enrichment score ([8]; R-MMU-6798695 Neutrophil degranulation) of 1.588, a normalized enrichment score ([8]; R-MMU-6803157 Antimicrobial peptides) of 1.959 and a normalized enrichment score ([8]; R-MMU-6811436 COPI-independent Golgi-to-ER retrograde traffic) of −1.957. It also gave a normalized enrichment score ([8]; R-MMU-8878159 Transcriptional regulation by RUNX3) of −1.748, a normalized enrichment score ([8]; R-MMU-8948216 Collagen chain trimerization) of 2.098 and a normalized enrichment score ([8]; R-MMU-8951664 Neddylation) of −1.571. For the same compound, the “expression of collagen, extracellular matrix, cell structure and interaction pathways” value [8, 10] was “increased the expression of pathways such as collagen formation”, the “expression of innate immunity pathways” value [8, 10] was “increased expression of pathways that relate to innate immunity” and the “expression of synapse-dependent pathways” value [8, 10] was “decreased expression of synapse-dependent pathways”. The “genes significantly modulated (p<0.05)” value [8, 10] was 1438.
